Experimental findings from patent publication US12129237B2, “Substituted diaminocarboxamide and diaminocarbonitrile pyrimidines, compositions thereof, and methods of treatment therewith” (SIGNAL PHARMACEUTICALS, LLC, priority 2011, dated 2024) are described below.

In this experiment the target is T1, JNK1 (Homo sapiens, UniProt P45983).
T1 construct: purchased Carna Biosciences
The experiment is described as follows: JNK1 biochemical assays (one or more of: time resolved fluorescence, Z'-LYTE Cascade, radioactive).

The mark [1] stands for this setting: Table 3, JNK1 IC50 activity level, read-out: Act. Level.
The mark [2] stands for this setting: one or more of the JNK1 biochemical assays, read-out: Act. Level (JNK1 IC50 activity level).
Where [3] appears, read: Table 2, JNK1 IC50 activity level, read-out: Act. Level.
Where [4] appears, read: tested in one or more of the JNK1 biochemical assays, read-out: Act. Level (JNK1 biochemical assay IC50 activity level).

SMILES strings stand for the structures. Like-named read-outs stand apart in the source and are kept apart here.

T1 sequence (P45983 whole entry): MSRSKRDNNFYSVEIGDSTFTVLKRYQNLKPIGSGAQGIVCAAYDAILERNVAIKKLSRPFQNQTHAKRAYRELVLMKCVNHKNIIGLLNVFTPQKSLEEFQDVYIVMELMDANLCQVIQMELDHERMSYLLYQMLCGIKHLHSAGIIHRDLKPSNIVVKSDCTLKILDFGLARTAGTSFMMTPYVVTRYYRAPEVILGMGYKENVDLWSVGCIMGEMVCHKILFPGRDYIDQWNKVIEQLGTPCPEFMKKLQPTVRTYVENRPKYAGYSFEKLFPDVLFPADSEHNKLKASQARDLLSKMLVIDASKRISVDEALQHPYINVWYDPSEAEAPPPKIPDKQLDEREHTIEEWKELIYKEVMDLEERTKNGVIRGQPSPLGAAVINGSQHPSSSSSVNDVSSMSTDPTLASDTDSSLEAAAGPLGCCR
Procedure: JNK1 Assay. A 384-well time resolved fluorescence assay was used to monitor JNK1 activity. The JNK1 assay was run in the following assay buffer: 50 mM HEPES, 10 mM MgCl2, 1 mM EGTA, 2 mM DTT, and 0.01% Tween 20. To initiate the reaction 100 nM of ULight™-labeled 4EBP1 peptide (Perkin-Elmer) and 5 μM of ATP were mixed with 500 pM of JNK1 (Carna Biosciences), for a total assay volume of 20 μL in each well. The assay was incubated at room temperature for 1 h and terminated using a mixture of 30 mM EDTA and 4 nM Eu-anti-4EBP1, by adding 20 μL of stop solution to each well. Plates were read on a Perkin-Elmer Envision Reader.
JNK1 Assay. The JNK1 Z′-LYTE® Cascade kinase assay was run in the following buffer: 50 mM HEPES at pH 7.5, 0.01% BRIJ-35, 10 mM MgCl2, 1 mM EGTA, and 1 mM DTT. […] The assay was incubated at room temperature for 1 h. […] The data was then read on a fluorescence plate reader and analyzed.
JNK1 assay. The radioactive JNK kinase assay was carried out in a 96-well plate format at a final volume of 100 μL. […] JNK1 was diluted in the following dilution buffer (20 mM HEPES pH 7.6, 0.1 mM EDTA, 2.5 mM MgCl2, 0.004% (w/v) Triton X100, 2 μg/ml Leupeptin, 20 mM B-glycerol phosphate, 0.1 mM Na3VO4 dithiothreitol) and then pre-mixed with cJun diluted in the substrate solution buffer (20 mM HEPES pH 7.6, 50 mM NaCl, 0.1 mM EDTA, 2.5 mM MgCl2, 0.05% (w/v) Triton X100). […] The enzyme, substrate and inhibitor mixture was allowed to equilibrate at room temperature for 15 minutes. The reaction was started by the addition of 10 μL of 10×ATP in kinase buffer (130 mM MgCl2, 6 mM dithiothreitol, 150 mM para-nitrophenyl phosphate, 100 μCi/ml γ-[^33P]-ATP). Reactions were allowed to proceed for 60 minutes before precipitation of protein via trichloroacetic acid (7.2% TCA final). […] The precipitate was washed with Phosphate Buffered Saline and the amount of phosphate incorporated into cJun was quantified by scintillation counting using a Packard Topcount-NXT. All assays were conducted under conditions where phosphate incorporation was linear with respect to time and enzyme concentration.

As for `CN(C)C(=O)[C@H]1CC[C@H](Nc2ncc(C#N)c(N[C@@H]3CCC[C@](C)(O)C3)n2)CC1` [Example C-43, (1R,4r)-4-(5-cyano-4-((1R,3S)-3-hydroxy-3-methylcyclohexylamino)pyrimidin-2-ylamino)-N,N-dimethylcyclohexanecarboxamide], the IC50 under setting [1] was less than 200 nM.
Take `CO[C@H]1CC[C@H](Nc2ncc(C(N)=O)c(N[C@]3(C)CCC[C@H](O)C3)n2)CC1` [Example 215, 4-((1R,3S)-3-hydroxy-1-methylcyclohexylamino)-2-((1r,4R)-4-methoxycyclohexylamino)pyrimidine-5-carboxamide]: the IC50 under setting [2] is less than 200 nM.
For the molecule `NC(=O)c1cnc(N[C@H]2CCc3ncccc3C2)nc1N[C@@H]1CCC[C@H](O)C1` [Example B-77, 4-((1R,3S)-3-hydroxycyclohexylamino)-2-((S)-5,6,7,8-tetrahydroquinolin-6-ylamino)pyrimidine-5-carboxamid], under setting [3], the IC50 is less than 200 nM.
On to `CO[C@H]1CC[C@](C)(Nc2ncc(C#N)c(N[C@@H]3CCC[C@H](O)C3)n2)CC1` [Example C-57, 4-((1R,3S)-3-hydroxycyclohexylamino)-2-((1r,4R)-4-methoxy-1-methylcyclohexylamino) pyrimidine-5-carbonitrile], for which the IC50 under setting [1] fell in the range of 200 to 800 nM.
`CC1(Nc2ncc(C(N)=O)c(N[C@@H]3CCCC[C@H](O)C3)n2)CCC1` [Example 352, 4-((1R,3S)-3-hydroxycycloheptylamino)-2-(1-methylcyclobutylamino)pyrimidine-5-carboxamide]: the IC50 under setting [2] was less than 200 nM.
`CN(C)C(=O)[C@H]1CC[C@H](Nc2ncc(C(N)=O)c(N[C@@H]3CCCOC3)n2)CC1` [Example A-194, 2-((1r,4R)-4-(dimethylcarbamoyl)cyclohexylamino)-4-((R)-tetrahydro-2H-pyran-3-ylamino)pyrimidine-5-carboxamide]: the IC50 under setting [4] is less than 200 nM.
With `NC(=O)c1cnc(N[C@H]2CC[C@](O)(c3ccccc3)CC2)nc1N[C@H]1CCC[C@@H]1O` [Example A-70, 2-((1s,4R)-4-hydroxy-4-phenylcyclohexylamino)-4-((1S,2S)-2-hydroxycyclopentylamino)pyrimidine-5-carboxamide], the IC50 under setting [4] was 200 to 800 nM.
Same read-out and setting: the result for `COC[C@H]1CC[C@H](Nc2ncc(C(N)=O)c(N[C@H]3CCC[C@@H]3O)n2)CC1` [Example A-92, 4-((1S,2S)-2-hydroxycyclopentylamino)-2-((1r,4S)-4-(methoxymethyl)cyclohexylamino)pyrimidine-5-carboxamide] reads less than 200 nM.
Consider `C[C@@H]1CC[C@@H](Nc2nc(N[C@H]3CC[C@H](O)CC3)ncc2C#N)C[C@H]1O` [Example C-48, 4-((1R,3R,4R)-3-hydroxy-4-methylcyclohexylamino)-2-((1r,4R)-4-hydroxycyclohexylamino) pyrimidine-5-carbonitrile], for which the IC50 under setting [1] was less than 200 nM.
As for `CC(C)(Nc1nc(NC2CCOCC2)ncc1C(N)=O)C1CC1` [Example 467, 4-(2-cyclopropylpropan-2-ylamino)-2-(tetrahydro-2H-pyran-4-ylamino)pyrimidine-5-carboxamide], the IC50 under setting [2] is less than 200 nM.
`CC(=O)N1CCC(Nc2ncc(C(N)=O)c(Nc3ccccc3)n2)CC1` [Example B-10, 2-(1-acetylpiperidin-4-ylamino)-4-(phenylamino)pyrimidine-5-carboxamide]: the IC50 under setting [3] lay within 1000 to 10000 nM.
Still for that read-out and setting: for `COc1ccc(CCNc2ncc(C(N)=O)c(Nc3ccccc3)n2)cc1OC` [Example B-66, 2-(3,4-dimethoxyphenethylamino)-4-(phenylamino)pyrimidine-5-carboxamide] the value was 200 to 800 nM.
For the molecule `NC(=O)c1cnc(N[C@H]2CC[C@H](O)CC2)nc1NCC1CC1` [Example 226, 4-(cyclopropylmethylamino)-2-((1r,4r)-4-hydroxycyclohexylamino)pyrimidine-5-carboxamide], under setting [2], the IC50 was less than 200 nM.
`CO[C@H]1CC[C@H](Nc2ncc(C(N)=O)c(N[C@H](C)C3CCC3)n2)CC1` [Example 296, 4-((R)-1-cyclobutylethylamino)-2-((1r,4R)-4-methoxycyclohexylamino)pyrimidine-5-carboxamide]: the IC50 under setting [2] lay in the range of 1000 to 10000 nM.
